Row | SMILES | melting point [°C]
1 | C=C(c1ccsc1C(=O)O)c1cc(C(C)(C)C)cc2c1CCC2(C)C [Example 10, 3-[1-(6-tert-Butyl-1,1-dimethylindan-4-yl)ethen-1-yl]-thiophene-2-carboxylic Acid] | 146 to 148
2 | C=C(c1ccsc1C=O)c1cc(C(C)(C)C)cc2c1CCC2(C)C [Example 9, 3-[1-(6-tert-Butyl-1,1-dimethylindan-4-yl)ethen-1-yl]-thiophene-2-carboxaldehyde] | 99 to 100
3 | C=C(c1cc(C(C)(C)C)cc2c1CCC2(C)C)c1sccc1C=O [Example 11, 2-[1-(6-tert-Butyl-1,1-dimethylindan-4-yl)ethen-1-yl]-thiophene-3-carboxaldehyde] | 148 to 150
4 | C=C(c1cc(C(C)(C)C)cc2c1CCC2(C)C)c1sccc1C(=O)O [Example 12, 2-[1-(6-tert-Butyl-1,1-dimethylindan-4-yl)ethen-1-yl]-thiophene-3-carboxylic Acid] | 148 to 150

From patent US6642273B2, “Unsaturated derivatives at the 4-position of 6-tert-butyl-1,1-dimethylindane and their use in human and veterinary medicine and in cosmetics” (Galderma Research & Development, priority 1997, dated 2003)
